Results as given in patent publication US9248124B2, “Use of inhibitors of IκB kinase for the treatment of cancer” (Millennium Pharmaceuticals, Inc., priority 2001, dated 2016).
“Also recorded” adds a separate entry of the source.

Tests used:
[1] = tested on: p42/44 MAPK phosphorylation; test: Immunoblot of IL-6 induced p42/44 MAPK phosphorylation in MM.1S cells; type: cell-based, human; settings: IL-6 50 ng/mL for 5 min, compound 1 10 μM 90 min, PS-341 5 μM 60 min, FIG. 5
Protocol: (§1) MM cells were cultured with PS-341 or compound 1; harvested; washed; and lysed using lysis buffer: 50 mM Tris-HCl (pH 7.4), 150 mM NaCl, 1% NP-40, 5 mM EDTA, 5 mM NaF, 2 mM Na3VO4, 1 mM PMSF, 5 μg/mL leupeptin, and 5 μg/mL aprotinin. For detection of phospho-IκBα, IκBα, phospho-MAPK, phospho-STAT3, ERK2 or alpha-tubulin, cell lysates were subjected SDS-PAGE, transferred to PVDF membrane (Bio-Rad Laboratories, Hercules, Calif.), and immunoblotted with anti-phospho-IκBα, -IκBα, -phospho-MAPK, or -phospho-STAT3 Abs (Cell Signaling, Beverly, Mass.), and anti-alpha-tubulin (Sigma) Abs.

MM.1S cells [2] = settings: previously reported, Hideshima et al. Blood 96:2943 (2000); cited from earlier work
[3] = tested on: IκBα phosphorylation and degradation in MM.1S cells; test: Immunoblot of IκBα phosphorylation and degradation triggered by TNFα in MM.1S cells; type: cell-based, human; settings: Dex 1 μM 18 h, PS-341 5 μM 60 min, compound 1 10 μM 90 min, TNFα 5 ng/mL 5 min, FIG. 7; for TNFα-induced phosphorylation of IκBα: presence or absence of IL-6
Protocol: as §1
Inhibition of IκBα phosphorylation by compound 1 was assayed in MM.1S and patient MM cells triggered by TNFα. […] To study the dose-dependent effect of compound 1, MM.1S cells were pre-treated with 1.25-40 μM compound 1 for 90 min, and then stimulated by TNFα (5 ng/mL).
The effect of Dex, compound 1, PS-341 and/or IL-6 on TNFα induced phosphorylation of IκBα in MM.1S cells was next examined. […] In contrast compound 1, in the presence or absence of IL-6, inhibits phosphorylation of IκBα. Dex inhibits TNFα-induced degradation of IκBα, whereas IL-6 blocks this effect. Both PS-341 and compound 1 inhibit degradation of IκBα, in the presence or absence of IL-6.

[4] = tested on: ICAM-1 and VCAM-1 expression on both BMSCs and MM cells; settings: Hideshima et al., Cancer Res. 61:3071 (2001); cited from earlier work
[5] = tested on: MM.1S, U266, and RPMI8226 cell lines; test: DNA synthesis ([3H]-TdR uptake) in MM cell lines; type: cell-based, human; settings: 48 h; FIG. 3B
Protocol: (§2) Proliferation was measured as previously described (Hideshima et al., Blood 96:2943 (2000)). MM cells (3×10^4 cells/well) were incubated in 96-well culture plates (Costar, Cambridge, Mass.) in the presence of media, PS-341, compound 1 and/or Dex or recombinant human IL-6 (Genetics Institute, Cambridge, Mass.) for 48 h at 37° C. DNA synthesis was measured by [^3H]-thymidine ([^3H]-TdR, NEN Products, Boston, Mass.) uptake. Cells were pulsed with [^3H]TdR (0.5 μCi/well) during the last 8 h of 48 h cultures. All experiments were performed in triplicate.
To study the direct effect of compound 1 on MM cells, [3H]-TdR uptake was measured in MM.1S, U266, and RPMI8226 cell lines cultured for 48 h in the presence of compound 1 (1.5-50 μM).

MM.1S cells [6] = test: DNA synthesis ([3H]-TdR uptake) in MM.1S cells with Dex, IL-6, Thal or IMiD3; type: cell-based, human; settings: IMiD3 0.25-1 μM, dose dependent, 48 h; FIG. 9
Protocol: as §2

SMILES	p42/44 MAPK phosphorylation [1]	MM.1S cell growth (MM.1S cells [2])	TNFα-induced phosphorylation of IκBα [3]	also measured
COc1cccc(-c2cc(=O)c3ccccc3o2)c1N [PD98059]	selectively inhibits			
O=C1CCC(N2C(=O)c3ccccc3C2=O)C(=O)N1 (stereo not shown) [Thalidomide]		inhibit		
C[C@@H]1C[C@H]2[C@@H]3CCC4=CC(=O)C=C[C@]4(C)[C@@]3(F)[C@@H](O)C[C@]2(C)[C@@]1(O)C(=O)CO [Dex, dexamethasone, reference compound]			does not inhibit	
CC(C)C[C@H](NC(=O)[C@H](Cc1ccccc1)NC(=O)c1cnccn1)B(O)O [PS-341, reference compound]	inhibits		does not inhibit; also recorded: enhances	TNFα induction of ICAM-1 and VCAM-1 expression [4]: blocks induction; TNFα-induced degradation of IκBα [3]: inhibit; [3H]-TdR uptake in all cell lines tested [5]: completely inhibited
Nc1cccc2c1CN(C1CCC(=O)NC1=O)C2=O (stereo not shown) [IMiD3, reference compound]		inhibit		DNA synthesis in MM.1S cell (MM.1S cells [6]): significantly (p<0.001) inhibited
